Data reported in patent EP0273199A2, “Uses of 3,4-diphenyl piperidine derivatives or medicines, 3,4-diphenyl piperidine derivatives, and process for their preparation” (LABORATOIRES HOECHST S.A., priority 1986, dated 1988).
Read-outs that look alike come from different tables or passages of the source.

Key:
[1] = test system: Toxizität des Yohimbins; assay: Potentiation of yohimbine toxicity; assay type: in vivo, Maus; details: ip
Description: Wirkung auf die Toxizität des Yohimbins
Zur Zeit 0 erhalten die Mäuse entweder destilliertes Wasser oder verschiedene zu untersuchende Verbindungen i.p. 30 Minuten danach verabreicht man ihnen subkutan eine infratoxische Dosis von 25 mg/kg Yohimbinchlorhydrat.
Die Mortalität wird jede Stunde über einen Zeitraum von 4 Stunden verfolgt und dann nach 24 Stunden notiert.
Die eine antidepressive Aktivität besitzenden Produkte verursachen eine Potenzierung der Toxizität des Yohimbins.

[2] = test system: Apomorphin 1 mg.kg^-1 s.c.; assay: Apomorphine 1 mg/kg s.c. antagonism (no method given); assay type: in vivo; details: ip, Tabelle Ib; read-out: Erste wirksame Dosis Apomorphin 1 mg.kg^-1 s.c.
[3] = test system: Maus; assay: Behavioural despair test (Porsolt forced swimming); assay type: in vivo; details: mouse; for Dauer der Unbeweglichkeit: 30 min before test
Excerpt: Test auf verzweifeltes Verhalten, wie von Porsolt u.a. (Arch. Int, Pharmacodyn. Ther. 229, 327 - 336, 1977) beschrieben.
Die Verbindungen werden intraperetoneal 30 Minuten vor dem Test verabreicht, und die Tiere werden vor dem erzwungenen Schwimmtest isoliert gehalten. Man bewertet die Dauer der Unbeweglichkeitsperioden in Sekunden ausgedrückt, die von der 2. bis zur 6. Minute nach dem Einsetzen des Tieres in Wasser gezählt werden.

[4] = test system: Motoraktivität; assay: Actimetry (motor activity, photocell actimeter); assay type: in vivo, Maus; details: for Motilität: i.p., direction of change; for minimal effective dose: ip, read-out: Erste wirksame Dosis Motilität
Excerpt: Die Motoraktivität wird mittels Photozellenaktimetern bestimmt (Boissier und Simon, Arch. Int. Pharmacodyn. 1965, 158, 212-221).
Die Mäuse (10 oder ein Vielfaches von 10 pro Gruppe) werden unmittelbar nach i.p. Verabreichung der zu untersuchenden Verbindungen in das Aktimeter eingesetzt. Die Motoraktivität wird danach bis zur 60. Minute gemessen. De Zähler werden nach 30 Minuten abgelesen und dann auf 0 zurückgestellt und im Verlauf von 30 Minuten alle 10 Minuten abgelesen.
Die Beweglichkeit der mit den verschiedenen Verbindungen behandelten Tiere wird mit derjenigen einer destilliertes Wasser erhaltenden Kontrollgruppe verglichen.
Die eine psychostimulierende Aktivität besitzenden Produkte verursachen eine Zunahme der Beweglichkeit.

[5] = test system: Maus; assay: Tail suspension test; assay type: in vivo; details: for minimal effective dose: ip, read-out: Erste wirksame Dosis T.S.T. Maus
Excerpt: Schwanzaufhängungstest an der Maus wie von Stéru u.a. beschrieben (Psychopharmacology 85, 367-370, 1985).
Die Substanzen werden intraperitoneal 30 Minuten vor dem Test verabreicht und die Tiese isoliert (10 Mäuse pro Dosis).
Man bewertet die Dauer der Unbeweglichkeit, ausgedrückt in Sekunden über die 6 Minuten des Tests. Man untersucht auf eine Verkürzung dieser Unbeweglichkeitszeit.

[6] = test system: durch Reserpin induzierten Hypothermie; assay: Antireserpine activity (reserpine-induced hypothermia); assay type: in vivo, Maus; details: ip
Description: Zur Zeit 0 erhalten die Mäuse intraperitoneal Reserpin (2,5 mg/kg).
4 Stunden danach, wenn die Hypothermie genügend stark erscheint (30 bis 33°C), verabreicht man die verschiedenen zu untersuchenden Verbindungen i.p. oder p.o. Alle 30 Minuten über einen Zeitraum von 2 Stunden mißt man die Rektaltemperatur mit einer auf konstante Tiefe eingeführten, ein Thermoelement tragenden Sonde. Die Rektaltemperatur der mit verschiedenen erfindungsgemäßen Verbindungen behandelten Tiere wird mit der Temperatur einer Kontrollgruppe verglichen, die destilliertes Wasser auf die gleiche Weise wie die untersuchten Verbindungen erhält.
Die Akinesie (fehlende Bewegungen) und Ptose (Öffnungsgrad des Augenlids von 0 bis 4 nach Rubin u.a 1957) werden ebenfalls alle 30 Minuten über einen Zeitraum von 2 Stunden bewertet.
Die eine antidepressive Aktivität besitzenden Produkte wirken der durch Reserpin induzierten Hypothermie entgegen. Für jede Dosis der verabreichten Verbindung berechnet man die prozentuale Hemmung der Hypothermie.

[7] = test system: Apomorphin 16 mg/kg; assay: Antiapomorphine activity (apomorphine 16 mg/kg s.c., hypothermia); assay type: in vivo, Maus; details: ip
Description: Zur Zeit 0 nach Ausgleich der Reaktaltemperaturen werden die Mäuse (6 pro Gruppe) in deren Beobachtung gestattende Einzelkäfige (11 x 3,5 x 4 cm) eingeetzt. 30 Minuten nach i.p. bzw. p.o. Verabreichung der Testsubstanz erhalten sie Apomorphin subkutan in einer Dosis von 16 mg/kg. Die Rektaltemperatur wird 30 Minuten nach dem Apomorphin gemessen. Die Kontrolltiere erhalten destilliertes Wasser statt der zu untersuchenden Verbindungen. Die bei diesen Kontrolltieren, die 16 mg/kg Apomorphin erhalten haben, beobachtete Hypothermie liegt im Durchschnitt bei 33°C. Für jede Verbindungsdosis berechnet man die prozentuale Hemmung der Hypothermie.

[8] = test system: durch Oxotremorin induzierten Hypothermie; assay: Antioxotremorine activity (oxotremorine-induced hypothermia); assay type: in vivo, Maus; details: ip, read-out: Erste wirksame Dosis Oxotremorin
Description: Nach Ausgleich der Rektaltemperaturen erhalten Mäuse (6 pro Gruppe) entweder destillietes Wasser oder die verschiedenen zu untersuchenden Verbindungen i.p.
30 Minuten danach verabreicht man intraperitoneal Oxotremorin in einer Dosis von 0,5 mg/kg.
Die Mäuse werden dan beobachtet: Tremor wird je nach der Intensität von 0 bis 3 bewertet, und die Akinesie wird alle 10 Minuten über einen Zeitraum von 30 Minuten auf Vorliegen oder Fehlen bestimmt.
Außerdem beobachtet man 2 Stunden lang das Erscheinen peripherer Symptome (Tränen, Darmentleerung). Die Rektaltemperatur wird alle 30 Minuten über eine Zeitraum von 2 Stunden nach der Verabreichung des Oxotremorins gemessen.
Die eine antidepressive Aktivität besitzenden Produkte wirken der durch Oxotremorin induzierten Hypothermie entgegen.
Für jede Dosis der Verbindung berechnet man die prozentuale Hemmung der Hypothermie.

[9] = Tabelle Ib, read-out: Erste wirksame Dosis Yohimbin
[10] = Tabelle Ib, read-out: Erste wirksame Dosis Reserpin
[11] = Tabelle Ib, read-out: Erste wirksame Dosis Apomorphin 16 mg.kg^-1 s.c.

`CN(C)CCCN1c2ccccc2CCc2ccccc21` [IMIPRAMIN] was tested, and the minimal effective dose [1, 9] was 16 mg/kg, the minimal effective dose [2] was 8 mg/kg and the “% Antagonismus” value ([3]; 16 mg/kg i.p.) was 37%. The “Dauer der Unbeweglichkeit” value ([3]; 16 mg/kg i.p.) was 112 ± 23 p < 0,05 Sekunden, the Motilität ([4]; Tabelle Ib) was “↘” and the minimal effective dose ([4]; Tabelle Ib) was 128 mg/kg. The minimal effective dose ([5]; Tabelle Ib) was 1 to 4 mg/kg, the “% Antagonismus” value ([5]; mouse, 1 mg/kg i.p.) was 31% and the “Dauer der Unbeweglichkeit” value ([5]; mouse, 1 mg/kg i.p.) was 70 ± 17 Sekunden. For the same compound, the “% Antagonismus” value ([5]; mouse, 2 mg/kg i.p.) was 42%, the “Dauer der Unbeweglichkeit” value ([5]; mouse, 2 mg/kg i.p.) was 59 ± 8 p < 0,01 Sekunden and the “% Antagonismus” value ([5]; mouse, 4 mg/kg i.p.) was 48%. The “Dauer der Unbeweglichkeit” value ([5]; mouse, 4 mg/kg i.p.) was 53 ± 11 p < 0,01 Sekunden, the “% Antagonismus” value ([5]; mouse, 8 mg/kg i.p.) was 58% and the “Dauer der Unbeweglichkeit” value ([5]; mouse, 8 mg/kg i.p.) was 48 ± 10 p < 0,01 Sekunden. The “% Antagonismus” value ([5]; mouse, 16 mg/kg i.p.) was 73%, the “Dauer der Unbeweglichkeit” value ([5]; mouse, 16 mg/kg i.p.) was 28 ± 7 p < 0,001 Sekunden and the minimal effective dose [6, 10] was 2 mg/kg. The minimal effective dose [7, 11] was 4 mg/kg.
For `CN1CCN2c3ccccc3Cc3ccccc3C2C1` (stereo not drawn) [MIANSERIN, reference compound], the minimal effective dose [2] was 64 mg/kg, the Motilität ([4]; Tabelle Ib) was “↘” and the minimal effective dose ([4]; Tabelle Ib) was 32 mg/kg. The minimal effective dose [6, 10] was > 32 mg/kg, the minimal effective dose ([8]; Tabelle Ib) was 32 mg/kg and the minimal effective dose [7, 11] was 64 mg/kg.
In the case of `CN1Cc2c(N)cccc2C(c2ccccc2)C1` (stereo not drawn) [NOMIFENSIN], the minimal effective dose [1, 9] is reported as 4 mg/kg, the minimal effective dose [2] is reported as 2 mg/kg and the “% Antagonismus” value ([3]; 4 mg/kg i.p.) is reported as 39%. For the same compound, the “Dauer der Unbeweglichkeit” value ([3]; 4 mg/kg i.p.) was 120 ± 23 p < 0,001 Sekunden, the Motilität ([4]; Tabelle Ib) was “↗” and the minimal effective dose ([4]; Tabelle Ib) was 4 mg/kg. The minimal effective dose ([5]; Tabelle Ib) was 0.25 mg/kg, the “% Antagonismus” value ([5]; mouse, 0,06 mg/kg i.p.) was 35% and the “Dauer der Unbeweglichkeit” value ([5]; mouse, 0,06 mg/kg i.p.) was 59 ± 9 Sekunden. The “% Antagonismus” value ([5]; mouse, 0,25 mg/kg i.p.) was 55%, the “Dauer der Unbeweglichkeit” value ([5]; mouse, 0,25 mg/kg i.p.) was 41 ± 6 p < 0,01 Sekunden and the “% Antagonismus” value ([5]; mouse, 1 mg/kg i.p.) was 66%. The “Dauer der Unbeweglichkeit” value ([5]; mouse, 1 mg/kg i.p.) was 31 ± 6 p < 0,01 Sekunden, the “% Antagonismus” value ([5]; mouse, 4 mg/kg i.p.) was 80% and the “Dauer der Unbeweglichkeit” value ([5]; mouse, 4 mg/kg i.p.) was 18 ± 5 p < 0,001 Sekunden. For the same compound, the minimal effective dose [6, 10] was 8 mg/kg, the minimal effective dose [8] was 16 mg/kg and the minimal effective dose [7, 11] was 2 mg/kg.
In the case of `CCOc1ccccc1OCC1CNCCO1` (stereo not drawn) [VILOXAZIN, reference compound], the minimal effective dose ([1]; read-out: Erste wirksame Dosis Yohimbin, i.p., Tabelle Ib) is reported as 8 mg/kg, the minimal effective dose [2] is reported as > 32 mg/kg and the Motilität ([4]; Tabelle Ib) is reported as “↘”. It also gave a minimal effective dose [4] of 16 mg/kg, a minimal effective dose [5] of 8 mg/kg and a minimal effective dose ([6]; read-out: Erste wirksame Dosis Reserpin, i.p., Tabelle Ib) of 4 mg/kg. The minimal effective dose [8] was 4 mg/kg and the minimal effective dose ([7]; read-out: Erste wirksame Dosis Apomorphin 16 mg.kg^-1 s.c., i.p., Tabelle Ib) was 8 mg/kg.
